Test results reported in the NIST ThermoML archive (doi:10.1016/j.tca.2015.02.020).

Assay: molar heat capacity at constant pressure; xn = mol fraction of the nth substance listed
Conditions: 101 kPa, Small sample (50 mg) DSC

NCCO [2-aminoethan-1-ol] + O
Conditions | molar heat capacity at constant pressure [J/K/mol]
125.88 K, Glass, x1 = 0.19 | 25.67
126.5 K, Glass, x1 = 0.31 | 30.11
126.8 K, Glass, x1 = 0.73 | 44.51
126.93 K, Glass, x1 = 0.73 | 46.98
127.09 K, Glass, x1 = 0.23 | 27.92
127.56 K, Glass, x1 = 0.19 | 25.67
127.58 K, Glass, x1 = 0.23 | 28.2
128.65 K, Glass, x1 = 0.31 | 31.05
130.53 K, Glass, x1 = 0.19 | 28.03
131.15 K, Glass, x1 = 0.31 | 31.68
131.46 K, Glass, x1 = 0.73 | 45.5
131.76 K, Glass, x1 = 0.73 | 48.96
131.91 K, Glass, x1 = 0.31 | 31.68
131.92 K, Glass, x1 = 0.23 | 29.6
132.24 K, Glass, x1 = 0.23 | 29.6
132.38 K, Glass, x1 = 0.19 | 26.72
135.04 K, Glass, x1 = 0.73 | 49.95
135.19 K, Glass, x1 = 0.31 | 32.62
135.2 K, Glass, x1 = 0.19 | 30.13
135.2 K, Glass, x1 = 0.23 | 30.71
135.66 K, Glass, x1 = 0.19 | 27.77
136.91 K, Glass, x1 = 0.23 | 31.55
136.92 K, Glass, x1 = 0.31 | 33.88
137.23 K, Glass, x1 = 0.73 | 46.98
139.88 K, Glass, x1 = 0.19 | 33.27
141.59 K, Glass, x1 = 0.23 | 34.34
141.59 K, Glass, x1 = 0.31 | 36.07
141.6 K, Glass, x1 = 0.73 | 52.42
141.75 K, Glass, x1 = 0.23 | 32.67
141.75 K, Glass, x1 = 0.31 | 34.19
141.91 K, Glass, x1 = 0.73 | 47.97
142.22 K, Glass, x1 = 0.19 | 29.34
144.56 K, Glass, x1 = 0.19 | 38.25
144.88 K, Glass, x1 = 0.73 | 53.91
145.03 K, Glass, x1 = 0.31 | 35.13
145.04 K, Glass, x1 = 0.23 | 34.06
145.51 K, Glass, x1 = 0.19 | 30.91
146.28 K, Glass, x1 = 0.23 | 39.37
146.28 K, Glass, x1 = 0.31 | 40.15
146.6 K, Glass, x1 = 0.73 | 49.95
151.3 K, Glass, x1 = 0.73 | 52.92
151.46 K, Glass, x1 = 0.73 | 56.38
151.61 K, Glass, x1 = 0.31 | 39.21
154.75 K, Glass, x1 = 0.73 | 57.86
158.65 K, Liquid, x1 = 0.19 | 63.66
160.38 K, Liquid, x1 = 0.23 | 65.61
161.96 K, Liquid, x1 = 0.19 | 60.52
163.35 K, Liquid, x1 = 0.19 | 64.19
164.78 K, Liquid, x1 = 0.31 | 75.91
165.07 K, Liquid, x1 = 0.23 | 65.61
165.08 K, Liquid, x1 = 0.31 | 73.71
165.25 K, Liquid, x1 = 0.19 | 60.78
168.06 K, Liquid, x1 = 0.19 | 64.45
169.79 K, Liquid, x1 = 0.23 | 65.61
169.79 K, Liquid, x1 = 0.31 | 73.4
170.12 K, Liquid, x1 = 0.73 | 109.3
171.22 K, Liquid, x1 = 0.73 | 122.65
171.38 K, Liquid, x1 = 0.23 | 68.96
171.38 K, Liquid, x1 = 0.31 | 75.59
171.85 K, Liquid, x1 = 0.19 | 61.57
172.77 K, Liquid, x1 = 0.19 | 64.97
174.5 K, Liquid, x1 = 0.23 | 65.61
174.5 K, Liquid, x1 = 0.31 | 73.4
174.52 K, Liquid, x1 = 0.73 | 121.66
174.68 K, Liquid, x1 = 0.23 | 69.52
174.68 K, Liquid, x1 = 0.31 | 75.59
174.83 K, Liquid, x1 = 0.73 | 109.3
175.15 K, Liquid, x1 = 0.19 | 61.83
177.48 K, Liquid, x1 = 0.19 | 65.23
179.21 K, Liquid, x1 = 0.23 | 65.89
179.21 K, Liquid, x1 = 0.31 | 73.4
179.55 K, Liquid, x1 = 0.73 | 109.79
181.12 K, Liquid, x1 = 0.73 | 122.15
181.28 K, Liquid, x1 = 0.23 | 70.36
181.28 K, Liquid, x1 = 0.31 | 76.22
181.75 K, Liquid, x1 = 0.19 | 62.35
182.19 K, Liquid, x1 = 0.19 | 66.02
183.93 K, Liquid, x1 = 0.23 | 66.17
183.93 K, Liquid, x1 = 0.31 | 73.71
184.27 K, Liquid, x1 = 0.73 | 109.79
184.43 K, Liquid, x1 = 0.73 | 122.15
184.58 K, Liquid, x1 = 0.31 | 76.22
184.59 K, Liquid, x1 = 0.23 | 70.64
186.92 K, Liquid, x1 = 0.19 | 66.54
188.65 K, Liquid, x1 = 0.23 | 66.73
188.65 K, Liquid, x1 = 0.31 | 74.02
188.98 K, Liquid, x1 = 0.73 | 110.28
191.04 K, Liquid, x1 = 0.73 | 120.18
191.19 K, Liquid, x1 = 0.31 | 77.16
191.2 K, Liquid, x1 = 0.23 | 71.48
191.64 K, Liquid, x1 = 0.19 | 67.07
193.38 K, Liquid, x1 = 0.23 | 67.57
193.38 K, Liquid, x1 = 0.31 | 74.65
193.72 K, Liquid, x1 = 0.73 | 111.27
194.5 K, Liquid, x1 = 0.31 | 77.47
194.51 K, Liquid, x1 = 0.23 | 72.04
196.37 K, Liquid, x1 = 0.19 | 67.85
198.1 K, Liquid, x1 = 0.23 | 68.13
198.1 K, Liquid, x1 = 0.31 | 74.97
198.44 K, Liquid, x1 = 0.73 | 112.26
201.09 K, Liquid, x1 = 0.19 | 68.9
201.13 K, Liquid, x1 = 0.23 | 72.59
201.13 K, Liquid, x1 = 0.31 | 78.73
202.83 K, Liquid, x1 = 0.23 | 68.96
202.84 K, Liquid, x1 = 0.31 | 75.28
203.18 K, Liquid, x1 = 0.73 | 112.76
204.44 K, Liquid, x1 = 0.23 | 72.87
204.44 K, Liquid, x1 = 0.31 | 79.36
205.82 K, Liquid, x1 = 0.19 | 69.95
207.56 K, Liquid, x1 = 0.23 | 69.8
207.56 K, Liquid, x1 = 0.31 | 76.22
